In article PMC6468590, “Novel Flavivirus Antiviral That Targets the Host Nuclear Transport Importin α/β1 Heterodimer” (Cells, 2019) one finds IC50 data, which are given here for one molecule.

The experiment deals with T1, IMPα2 (importin α, IMPα) (Mus musculus, UniProt P52293).
T1 construct: gene Kpna2; full-length His6-IMPα2 and IMPαΔIBB (residues 67–529, ARM repeat domain)
Nature of the experiment: multi-wavelength analytical ultracentrifugation (co-sedimentation at […] nm), SYPRO orange thermal shift and CD; the IC50 is AlphaScreen inhibition of IMPα binding to IMPβ[…].

Turning to `O=C1Nc2ccc(I)cc2/C1=C/c1cc(Br)c(O)c(Br)c1` [GW5074], the IC50 was determined as 10.3 ± 0.8 µM.
